Measured values reported in ChEMBL document CHEMBL4257490, “Development of a peptide-based bifunctional chelator conjugated to a cytotoxic drug for the treatment of melanotic melanoma” (Medchemcomm, 2018).

Tests used:
[1] = Hemolytic activity in rat erythrocytes up to 50 uM after 1 hr relative to control; type: ADME, cell-based, Erythrocyte; conditions: read-out: Activity
[2] = Hemolytic activity in rat erythrocytes at 100 uM after 1 hr relative to control; type: ADME, cell-based, Erythrocyte; conditions: read-out: Activity
[3] = Stability in saline assessed as parent compond remaining using 99mTc(CO)3-labeled compound after 24 hrs by TLC method; type: physicochemical; conditions: read-out: Stability
[4] = Metabolic stability in rat serum assessed as parent compound remaining using 99mTc(CO)3-labeled compound after 24 hrs by TLC method; type: ADME, cell-free; conditions: read-out: Stability
[5] = Drug degradation in histidine solution using 99mTc(CO)3-labeled compound after 24 hrs by TLC method; type: physicochemical; conditions: read-out: Drug degradation
[6] = n-Octanol-phosphate buffer partition co-efficient, log P of 99mTc(CO)3-labeled compound at 2 to 3 KBq after 1 min by gamma scintillation counting method; type: physicochemical
[7] = Drug uptake in mouse B16F10 cells using 99mTc(CO)3-labeled compound at 15 to 20 MBq/ml after 30 mins by gamma scintillation counting method relative to total added activity; type: ADME, cell-based; conditions: b16-f10, 0.5 h
[8] = Drug uptake in mouse B16F10 cells using 99mTc(CO)3-labeled compound at 15 to 20 MBq/ml after 240 mins by gamma scintillation counting method relative to total added activity; type: ADME, cell-based; conditions: b16-f10, 4 h
[9] = Drug uptake in mouse B16F10 cells using 99mTc(CO)3-labeled compound at 15 to 20 MBq/ml after 30 mins by gamma scintillation counting method; type: ADME, cell-based; conditions: b16-f10, 0.5 h
[10] = Drug uptake in heart of Balb/c mouse allografted with mouse B16F10 cells using 99mTc(CO)3-labeled compound at 10 to 12 MBq/kg, iv measured at 2 hrs; type: ADME, organism-based; conditions: in vivo
[11] = Drug uptake in blood of Balb/c mouse allografted with mouse B16F10 cells using 99mTc(CO)3-labeled compound at 10 to 12 MBq/kg, iv measured at 2 hrs; type: ADME, organism-based; conditions: in vivo
[12] = Drug uptake in liver of Balb/c mouse allografted with mouse B16F10 cells using 99mTc(CO)3-labeled compound at 10 to 12 MBq/kg, iv measured at 2 hrs; type: ADME, organism-based; conditions: in vivo
[13] = Drug uptake in lung of Balb/c mouse allografted with mouse B16F10 cells using 99mTc(CO)3-labeled compound at 10 to 12 MBq/kg, iv measured at 2 hrs; type: ADME, organism-based; conditions: in vivo
[14] = Drug uptake in spleen of Balb/c mouse allografted with mouse B16F10 cells using 99mTc(CO)3-labeled compound at 10 to 12 MBq/kg, iv measured at 2 hrs; type: ADME, organism-based; conditions: in vivo
[15] = Drug uptake in muscle of Balb/c mouse allografted with mouse B16F10 cells using 99mTc(CO)3-labeled compound at 10 to 12 MBq/kg, iv measured at 2 hrs; type: ADME, organism-based, Muscle tissue; conditions: in vivo
[16] = Drug uptake in tumor muscle of Balb/c mouse allografted with mouse B16F10 cells using 99mTc(CO)3-labeled compound at 10 to 12 MBq/kg, iv measured at 2 hrs; type: ADME, organism-based; conditions: in vivo
[17] = Drug uptake in kidney of Balb/c mouse allografted with mouse B16F10 cells using 99mTc(CO)3-labeled compound at 10 to 12 MBq/kg, iv measured at 2 hrs; type: ADME, organism-based; conditions: in vivo
[18] = Drug uptake in intestine of Balb/c mouse allografted with mouse B16F10 cells using 99mTc(CO)3-labeled compound at 10 to 12 MBq/kg, iv measured at 2 hrs; type: ADME, organism-based; conditions: in vivo
[19] = Drug uptake in stomach of Balb/c mouse allografted with mouse B16F10 cells using 99mTc(CO)3-labeled compound at 10 to 12 MBq/kg, iv measured at 2 hrs; type: ADME, organism-based; conditions: in vivo
[20] = Drug uptake in urine of Balb/c mouse allografted with mouse B16F10 cells using 99mTc(CO)3-labeled compound at 10 to 12 MBq/kg, iv measured at 2 hrs; type: ADME, organism-based; conditions: in vivo
[21] = Ratio of drug level in tumor to blood of Balb/c mouse allografted with mouse B16F10 cells using 99mTc(CO)3-labeled compound at 10 to 12 MBq/kg, iv measured at 2 hrs; type: ADME, organism-based, Tumor/tissue
[22] = Ratio of drug level in tumor to muscle of Balb/c mouse allografted with mouse B16F10 cells using 99mTc(CO)3-labeled compound at 10 to 12 MBq/kg, iv measured at 2 hrs; type: ADME, organism-based, Tumor/tissue; conditions: in vivo
[23] = Drug uptake in heart of Balb/c mouse allografted with mouse B16F10 cells using 99mTc(CO)3-labeled compound at 10 to 12 MBq/kg, iv measured at 4 hrs; type: ADME, organism-based; conditions: in vivo
[24] = Drug uptake in blood of Balb/c mouse allografted with mouse B16F10 cells using 99mTc(CO)3-labeled compound at 10 to 12 MBq/kg, iv measured at 4 hrs; type: ADME, organism-based; conditions: in vivo
[25] = Drug uptake in liver of Balb/c mouse allografted with mouse B16F10 cells using 99mTc(CO)3-labeled compound at 10 to 12 MBq/kg, iv measured at 4 hrs; type: ADME, organism-based; conditions: in vivo
[26] = Drug uptake in lung of Balb/c mouse allografted with mouse B16F10 cells using 99mTc(CO)3-labeled compound at 10 to 12 MBq/kg, iv measured at 4 hrs; type: ADME, organism-based; conditions: in vivo
[27] = Drug uptake in spleen of Balb/c mouse allografted with mouse B16F10 cells using 99mTc(CO)3-labeled compound at 10 to 12 MBq/kg, iv measured at 4 hrs; type: ADME, organism-based; conditions: in vivo
[28] = Drug uptake in muscle of Balb/c mouse allografted with mouse B16F10 cells using 99mTc(CO)3-labeled compound at 10 to 12 MBq/kg, iv measured at 4 hrs; type: ADME, organism-based, Muscle tissue; conditions: in vivo
[29] = Drug uptake in tumor muscle of Balb/c mouse allografted with mouse B16F10 cells using 99mTc(CO)3-labeled compound at 10 to 12 MBq/kg, iv measured at 4 hrs; type: ADME, organism-based; conditions: in vivo
[30] = Drug uptake in kidney of Balb/c mouse allografted with mouse B16F10 cells using 99mTc(CO)3-labeled compound at 10 to 12 MBq/kg, iv measured at 4 hrs; type: ADME, organism-based; conditions: in vivo
[31] = Drug uptake in intestine of Balb/c mouse allografted with mouse B16F10 cells using 99mTc(CO)3-labeled compound at 10 to 12 MBq/kg, iv measured at 4 hrs; type: ADME, organism-based; conditions: in vivo
[32] = Drug uptake in stomach of Balb/c mouse allografted with mouse B16F10 cells using 99mTc(CO)3-labeled compound at 10 to 12 MBq/kg, iv measured at 4 hrs; type: ADME, organism-based; conditions: in vivo
[33] = Drug uptake in urine of Balb/c mouse allografted with mouse B16F10 cells using 99mTc(CO)3-labeled compound at 10 to 12 MBq/kg, iv measured at 4 hrs; type: ADME, organism-based; conditions: in vivo
[34] = Ratio of drug level in tumor to blood of Balb/c mouse allografted with mouse B16F10 cells using 99mTc(CO)3-labeled compound at 10 to 12 MBq/kg, iv measured at 4 hrs; type: ADME, organism-based, Tumor/tissue
[35] = Ratio of drug level in tumor to muscle of Balb/c mouse allografted with mouse B16F10 cells using 99mTc(CO)3-labeled compound at 10 to 12 MBq/kg, iv measured at 4 hrs; type: ADME, organism-based, Tumor/tissue; conditions: in vivo
[36] = Drug uptake in tumor of Balb/c mouse allografted with mouse B16F10 cells using 99mTc(CO)3-labeled compound at 4 to 8 MBq, iv measured at 4 hrs by scintigraphic imaging method; type: ADME, organism-based, Neoplasm; conditions: in vivo
[37] = Drug uptake in kidney of Balb/c mouse allografted with mouse B16F10 cells using 99mTc(CO)3-labeled compound at 4 to 8 MBq, iv measured at 4 hrs by scintigraphic imaging method; type: ADME, organism-based; conditions: in vivo
[38] = Drug uptake in liver of Balb/c mouse allografted with mouse B16F10 cells using 99mTc(CO)3-labeled compound at 4 to 8 MBq, iv measured at 4 hrs by scintigraphic imaging method; type: ADME, organism-based; conditions: in vivo
[39] = Drug uptake in gastrointestinal tract of Balb/c mouse allografted with mouse B16F10 cells using 99mTc(CO)3-labeled compound at 4 to 8 MBq, iv measured at 4 hrs by scintigraphic imaging method; type: ADME, organism-based; conditions: in vivo
[40] = Drug uptake in urinary bladder of Balb/c mouse allografted with mouse B16F10 cells using 99mTc(CO)3-labeled compound at 4 to 8 MBq, iv measured at 4 hrs by scintigraphic imaging method; type: ADME, organism-based; conditions: in vivo
[41] = Drug uptake in mouse B16F10 cells using 99mTc(CO)3-labeled compound at 15 to 20 MBq/ml after 240 mins by gamma scintillation counting method; type: ADME, cell-based; conditions: b16-f10, 4 h

remaining at 24 h [3]: ≥ 92%
remaining at 24 h [4]: ≥ 92%
degraded at 24 h [5]: 5%
logP at 1 min [6]: -1.34
Drug uptake [7]: 3.99%
Drug uptake [8]: 6.11%
Drug uptake [9]: 35.24%
Drug uptake [10]: 0.09 % ID/g
Drug uptake [11]: 1.5 %ID/ml
Drug uptake [12]: 21.17 % ID/g
Drug uptake [13]: 0.25 % ID/g
Drug uptake [14]: 0.76 % ID/g
Drug uptake [15]: 0.16 % ID/g
Drug uptake [16]: 0.92 % ID/g
Drug uptake [17]: 16.12 % ID/g
Drug uptake [18]: 7.5 % ID/g
Drug uptake [19]: 0.29 % ID/g
Drug uptake [20]: 41.15 %ID/ml
Kp at 2 h [21]: 0.61
Ratio [22]: 5.75
Drug uptake [23]: 0.07 % ID/g
Drug uptake [24]: 1.31 %ID/ml
Drug uptake [25]: 18.89 % ID/g
Drug uptake [26]: 0.19 % ID/g
Drug uptake [27]: 0.54 % ID/g
Drug uptake [28]: 0.14 % ID/g
Drug uptake [29]: 1.09 % ID/g
Drug uptake [30]: 13.91 % ID/g
Drug uptake [31]: 6.3 % ID/g
Drug uptake [32]: 0.21 % ID/g
Drug uptake [33]: 45.95 %ID/ml
Kp at 4 h [34]: 0.83
Ratio [35]: 7.78
Drug uptake [36]: Not Active
Drug uptake [37]: Active
Drug uptake [38]: Active
Drug uptake [39]: Active
Drug uptake [40]: Active
Drug uptake [41]: 76%
Substance: H-HYKHGKDGR-NH2
hemolysis at 1 h [1]: 5 to 6%
hemolysis at 1 h, 100 µM [2]: 7 to 9%
